Test results taken from ChEMBL document CHEMBL1909046, “DrugMatrix in vitro pharmacology data”.

Key:
[1] = target: T1, Alpha-1D adrenergic receptor (Homo sapiens, UniProt P25100); type: cell membranes, HEK293, Membrane; conditions: hek293; note: in other assays of this panel Not Active means under 50% inhibition at 10 µM
T1 sequence (P25100 whole entry): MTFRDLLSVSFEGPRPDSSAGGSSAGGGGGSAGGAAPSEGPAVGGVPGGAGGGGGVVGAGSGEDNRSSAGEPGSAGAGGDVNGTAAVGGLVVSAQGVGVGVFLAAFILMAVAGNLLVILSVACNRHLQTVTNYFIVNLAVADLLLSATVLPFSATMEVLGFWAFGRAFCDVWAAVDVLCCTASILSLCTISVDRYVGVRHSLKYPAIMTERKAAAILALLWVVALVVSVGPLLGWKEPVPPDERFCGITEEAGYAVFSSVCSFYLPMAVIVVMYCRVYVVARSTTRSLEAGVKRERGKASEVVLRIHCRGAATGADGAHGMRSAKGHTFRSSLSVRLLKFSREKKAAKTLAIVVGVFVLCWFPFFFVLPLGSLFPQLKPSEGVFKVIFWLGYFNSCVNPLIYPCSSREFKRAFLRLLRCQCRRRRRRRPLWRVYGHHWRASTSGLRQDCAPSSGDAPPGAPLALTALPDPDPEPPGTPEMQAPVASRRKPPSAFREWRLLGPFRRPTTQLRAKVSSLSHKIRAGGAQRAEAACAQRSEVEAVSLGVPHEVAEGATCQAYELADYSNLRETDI

[2] = target: T2, Alpha-2C adrenergic receptor (Homo sapiens, UniProt P18825); test: DRUGMATRIX: Adrenergic Alpha-2C radioligand binding (ligand: [3H] MK-912); type: cell membranes, Sf9, Membrane; conditions: sf9
T2 sequence (P18825 whole entry): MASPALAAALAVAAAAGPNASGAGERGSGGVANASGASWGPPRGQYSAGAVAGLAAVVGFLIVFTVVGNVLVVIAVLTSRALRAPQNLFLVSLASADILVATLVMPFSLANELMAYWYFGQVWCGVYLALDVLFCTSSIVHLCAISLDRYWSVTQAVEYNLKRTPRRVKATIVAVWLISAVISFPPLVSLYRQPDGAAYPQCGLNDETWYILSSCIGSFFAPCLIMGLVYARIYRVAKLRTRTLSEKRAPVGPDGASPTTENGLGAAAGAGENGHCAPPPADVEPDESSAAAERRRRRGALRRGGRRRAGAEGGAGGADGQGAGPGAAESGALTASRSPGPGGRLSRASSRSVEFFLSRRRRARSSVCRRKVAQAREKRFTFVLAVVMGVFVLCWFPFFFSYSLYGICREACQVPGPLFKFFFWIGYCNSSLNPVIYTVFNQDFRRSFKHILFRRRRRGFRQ

[3] = target: Beta-2 adrenergic receptor (Homo sapiens, UniProt P07550); test: DRUGMATRIX: Adrenergic beta2 radioligand binding (ligand: [3H] CGP-12177); type: cell membranes, Membrane; conditions: cho; Not Active = under 50% inhibition at 10 µM
[4] = target: Aldo-keto reductase family 1 member B1 (Rattus norvegicus, UniProt P07943); type: tissue-based, Lens of camera-type eye;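 note: inhibition of aldose reductase enzyme activity, measured with DL-glyceraldehyde as the substrate; in other assays of this panel Not Active means under 50% inhibition at 10 µM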
[5] = DRUGMATRIX: Tumor Necrosis Factor (TNF), Non-Selective radioligand binding (ligand: [125I] TNF-alpha); type: cell membranes, Membrane; conditions: u-937; Not Active = under 50% inhibition at 10 µM
[6] = target: T3, Vasoactive intestinal polypeptide receptor 1 (Homo sapiens, UniProt P32241); type: cell membranes, Membrane; conditions: ht-29; note: in other assays of this panel Not Active means under 50% inhibition at 10 µM
T3 sequence (P32241 whole entry): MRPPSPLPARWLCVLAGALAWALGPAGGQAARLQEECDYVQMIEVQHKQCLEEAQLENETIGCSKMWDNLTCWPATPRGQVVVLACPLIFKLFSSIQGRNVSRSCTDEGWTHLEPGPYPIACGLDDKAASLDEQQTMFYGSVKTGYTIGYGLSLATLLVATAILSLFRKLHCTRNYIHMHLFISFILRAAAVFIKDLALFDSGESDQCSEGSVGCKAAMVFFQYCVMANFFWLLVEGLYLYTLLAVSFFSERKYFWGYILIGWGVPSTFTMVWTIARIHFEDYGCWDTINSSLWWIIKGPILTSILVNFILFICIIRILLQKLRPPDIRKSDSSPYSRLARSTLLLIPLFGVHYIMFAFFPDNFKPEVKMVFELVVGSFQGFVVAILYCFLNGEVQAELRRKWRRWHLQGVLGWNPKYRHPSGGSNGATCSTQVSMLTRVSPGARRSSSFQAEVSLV

[7] = DRUGMATRIX: Nicotinic Acetylcholine radioligand binding (ligand: [125I] Epibatidine); type: cell membranes, Membrane; conditions: imr-32; Not Active = under 50% inhibition at 10 µM
[8] = target: Mu-type opioid receptor (Homo sapiens, UniProt P35372); test: DRUGMATRIX: Opiate mu (OP3, MOP) radioligand binding (ligand: [3H] Diprenorphine); type: cell membranes, CHO-K1, Membrane; conditions: cho-k1; Not Active = under 50% inhibition at 10 µM
[9] = DRUGMATRIX: Platelet-Derived Growth Factor (PDGF) radioligand binding (ligand: [125I] PDGF); type: cell-based; conditions: nih3t3; Not Active = under 50% inhibition at 10 µM
[10] = target: T4, Cathepsin G (Homo sapiens, UniProt P08311); type: tissue-based; conditions: neutrophil;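 note: inhibition of Cathepsin G enzyme activity, tested on an AMC-conjugated peptide substrate; in other assays of this panel Not Active means under 50% inhibition at 10 µM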
T4 sequence (P08311 whole entry): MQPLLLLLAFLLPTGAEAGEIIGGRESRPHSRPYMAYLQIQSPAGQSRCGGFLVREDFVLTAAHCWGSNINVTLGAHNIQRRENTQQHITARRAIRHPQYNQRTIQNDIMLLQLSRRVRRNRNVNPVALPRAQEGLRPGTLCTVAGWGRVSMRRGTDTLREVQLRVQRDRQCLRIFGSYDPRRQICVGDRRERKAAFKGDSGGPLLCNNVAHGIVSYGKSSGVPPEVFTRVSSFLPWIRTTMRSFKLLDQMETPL

[11] = target: Mitogen-activated protein kinase 1 (Homo sapiens, UniProt P28482); test: DRUGMATRIX: Protein Serine/Threonine Kinase, ERK2 enzyme inhibition (substrate: Myelin Basic Protein); design: species or system Escherichia coli; conditions: Not Active = under 50% inhibition at 10 µM
[12] = target: 5-hydroxytryptamine receptor 1B (Rattus norvegicus, UniProt P28564); type: cell membranes, Wistar, Cerebral cortex, Membrane; note: in other assays of this panel Not Active means under 50% inhibition at 10 µM
[13] = target: Cytochrome P450 2E1 (Homo sapiens, UniProt P05181); conditions: bti-tn-5b1-4; note: in other assays of this panel Not Active means under 50% inhibition at 10 µM
Chain of Cytochrome P450 2E1 (P05181 whole entry): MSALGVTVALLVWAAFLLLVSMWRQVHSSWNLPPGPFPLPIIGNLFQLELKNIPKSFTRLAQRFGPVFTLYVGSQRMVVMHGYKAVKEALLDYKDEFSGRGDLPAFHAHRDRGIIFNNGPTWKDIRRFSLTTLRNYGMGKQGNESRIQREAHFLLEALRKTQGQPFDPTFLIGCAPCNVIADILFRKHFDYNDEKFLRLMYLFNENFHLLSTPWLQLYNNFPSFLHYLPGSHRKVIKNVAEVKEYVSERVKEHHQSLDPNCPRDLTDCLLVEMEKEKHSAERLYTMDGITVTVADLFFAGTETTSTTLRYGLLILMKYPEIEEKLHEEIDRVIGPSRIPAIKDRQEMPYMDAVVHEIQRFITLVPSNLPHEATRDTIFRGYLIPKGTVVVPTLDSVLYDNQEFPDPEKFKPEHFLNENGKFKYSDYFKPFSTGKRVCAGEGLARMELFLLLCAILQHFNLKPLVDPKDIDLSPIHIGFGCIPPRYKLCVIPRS

Chain of Mu-type opioid receptor (P35372 whole entry): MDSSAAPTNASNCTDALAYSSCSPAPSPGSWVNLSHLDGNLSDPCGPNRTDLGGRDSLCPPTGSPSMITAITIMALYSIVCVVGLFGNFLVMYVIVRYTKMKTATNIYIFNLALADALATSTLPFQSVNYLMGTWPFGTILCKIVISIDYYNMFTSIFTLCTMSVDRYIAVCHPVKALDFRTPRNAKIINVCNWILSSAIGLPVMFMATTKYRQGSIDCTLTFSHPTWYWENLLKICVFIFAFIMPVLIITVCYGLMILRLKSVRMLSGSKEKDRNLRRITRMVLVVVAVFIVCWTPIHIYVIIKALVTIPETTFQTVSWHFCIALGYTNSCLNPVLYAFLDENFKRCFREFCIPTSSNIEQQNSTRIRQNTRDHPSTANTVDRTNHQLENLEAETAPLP
Chain of Mitogen-activated protein kinase 1 (P28482 whole entry): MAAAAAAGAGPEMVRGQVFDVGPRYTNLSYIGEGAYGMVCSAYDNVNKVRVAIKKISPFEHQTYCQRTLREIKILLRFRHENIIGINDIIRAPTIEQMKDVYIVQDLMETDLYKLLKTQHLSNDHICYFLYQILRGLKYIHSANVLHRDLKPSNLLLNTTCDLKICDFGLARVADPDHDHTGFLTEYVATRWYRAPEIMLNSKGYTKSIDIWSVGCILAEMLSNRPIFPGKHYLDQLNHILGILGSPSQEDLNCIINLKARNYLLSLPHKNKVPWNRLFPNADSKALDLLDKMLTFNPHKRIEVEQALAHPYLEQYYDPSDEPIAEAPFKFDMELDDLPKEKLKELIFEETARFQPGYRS
Chain of Beta-2 adrenergic receptor (P07550 whole entry): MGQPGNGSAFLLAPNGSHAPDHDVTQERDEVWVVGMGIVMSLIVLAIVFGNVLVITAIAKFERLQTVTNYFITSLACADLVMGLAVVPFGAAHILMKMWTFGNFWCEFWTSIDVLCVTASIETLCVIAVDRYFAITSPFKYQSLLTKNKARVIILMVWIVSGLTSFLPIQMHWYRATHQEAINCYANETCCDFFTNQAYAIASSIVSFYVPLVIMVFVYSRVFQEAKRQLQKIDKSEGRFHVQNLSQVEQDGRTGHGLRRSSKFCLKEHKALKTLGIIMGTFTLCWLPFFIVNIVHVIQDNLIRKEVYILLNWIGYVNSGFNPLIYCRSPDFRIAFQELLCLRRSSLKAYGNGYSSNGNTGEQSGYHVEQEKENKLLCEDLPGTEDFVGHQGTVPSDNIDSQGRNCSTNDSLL
Chain of 5-hydroxytryptamine receptor 1B (P28564 whole entry): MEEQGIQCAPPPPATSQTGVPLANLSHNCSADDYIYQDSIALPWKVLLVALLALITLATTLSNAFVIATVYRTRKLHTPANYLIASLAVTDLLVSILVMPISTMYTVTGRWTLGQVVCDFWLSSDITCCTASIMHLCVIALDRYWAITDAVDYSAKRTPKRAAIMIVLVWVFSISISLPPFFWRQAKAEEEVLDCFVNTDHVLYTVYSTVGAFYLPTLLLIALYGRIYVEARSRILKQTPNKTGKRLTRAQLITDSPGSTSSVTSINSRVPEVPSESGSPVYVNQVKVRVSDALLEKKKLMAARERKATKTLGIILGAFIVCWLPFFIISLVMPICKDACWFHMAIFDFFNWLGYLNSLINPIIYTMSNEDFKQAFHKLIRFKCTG

O=C1CN=C(c2ccccc2)c2cc([N+](=O)[O-])ccc2N1 [NITRAZEPAM]
Not Active: IC50 [1] | IC50 [2] | IC50 [3] | IC50 [4] | IC50 [5] | Ki [5] | IC50 [6] | IC50 [7] | Ki [7] | IC50 [8] | IC50 [9] | Ki [9] | IC50 [10] | IC50 [11] | IC50 [12] | IC50 [13] | Ki [13]

CC1COc2c(N3CCN(C)CC3)c(F)cc3c(=O)c(C(=O)O)cn1c23 (centres undefined) [OFLOXACIN]
Not Active: IC50 [1] | IC50 [2] | IC50 [3] | IC50 [4] | IC50 [5] | Ki [5] | IC50 [6] | IC50 [7] | Ki [7] | IC50 [8] | IC50 [9] | Ki [9] | IC50 [10] | IC50 [11] | IC50 [12] | IC50 [13] | Ki [13]

Oc1cccc2cccnc12 [OXYQUINOLINE]
Not Active: IC50 [1] | IC50 [2] | IC50 [3] | IC50 [4] | IC50 [5] | Ki [5] | IC50 [6] | IC50 [7] | Ki [7] | IC50 [8] | IC50 [9] | Ki [9] | IC50 [10] | IC50 [11] | IC50 [12] | IC50 [13] | Ki [13]

CN(C)[C@@H]1C(O)=C(C(N)=O)C(=O)[C@@]2(O)C(O)=C3C(=O)c4c(O)cccc4[C@@](C)(O)[C@H]3[C@H](O)[C@@H]12 [OXYTETRACYCLINE]
Not Active: IC50 [1] | IC50 [2] | IC50 [3] | IC50 [4] | IC50 [5] | Ki [5] | IC50 [6] | IC50 [7] | Ki [7] | IC50 [8] | IC50 [9] | Ki [9] | IC50 [10] | IC50 [11] | IC50 [12] | IC50 [13] | Ki [13]

Fc1ccc([C@@H]2CCNC[C@H]2COc2ccc3c(c2)OCO3)cc1 [PAROXETINE]
Not Active: IC50 [1] | IC50 [2] | IC50 [3] | IC50 [4] | IC50 [5] | Ki [5] | IC50 [6] | IC50 [7] | Ki [7] | IC50 [8] | IC50 [9] | Ki [9] | IC50 [10] | IC50 [11] | IC50 [12] | IC50 [13] | Ki [13]

CC(C)(S)[C@@H](N)C(=O)O [PENICILLAMINE]
Not Active: IC50 [1] | IC50 [2] | IC50 [3] | IC50 [4] | IC50 [5] | Ki [5] | IC50 [6] | IC50 [7] | Ki [7] | IC50 [8] | IC50 [9] | Ki [9] | IC50 [10] | IC50 [11] | IC50 [12] | IC50 [13] | Ki [13]

CC(=O)CCCCn1c(=O)c2c(ncn2C)n(C)c1=O [PENTOXIFYLLINE]
Not Active: IC50 [1] | IC50 [2] | IC50 [3] | IC50 [4] | IC50 [5] | Ki [5] | IC50 [6] | IC50 [7] | Ki [7] | IC50 [8] | IC50 [9] | Ki [9] | IC50 [10] | IC50 [11] | IC50 [12] | IC50 [13] | Ki [13]
